Kd data for 10 compounds are collected here from patent publication US8383636B2, “Acyclic amine inhibitors of 5-methytioadenosine phosphorylase and nucleosidase” (priority 2006, dated 2013).

In one assay the target is T1, E. coli MTAN (Escherichia coli, UniProt P0AF12).
T1 construct: made in house
Briefly: Inhibition constants with E. coli MTAN (xanthine oxidase-coupled assay). The class given is biochemical. The note with it: 25° C., pH 7.5, MTA as substrate. The protocol: (§1) E. coli MTAN and human MTAP were obtained according to the reported methods (Singh, et al, Biochemistry 44, 11647-11659 (2005); Singh and Schramm J. Am. Chem. Soc. 128, 14691-14696 (2006). The MTAN gene sequences from N. meningitides MC58 and H. pylori J99 were amplified from genomic DNA (ATCC) and cloned into a modified pET-32 vector to direct high-level expression of MTAN with a non-cleavable N-terminal 6His tag. 1.5 L cultures of BL21(DE3) harbouring MTAN constructs were induced with 0.5 mM IPTG for 20 hours at 25° C. with vigorous shaking. Cell pellets were washed and lysed in 40 mL lysis buffer (25 mM HEPES, 0.5M NaCl, 10 mM imidazole pH 7.6, protease inhibitors and 0.25 mM TCEP) with the use of a cell disrupter at 15K psi. After removal of cell debris by centrifugation, the soluble cell lysates were loaded onto nickel-charged chelating sepharose (GE Healthcare) and washed with lysis buffer containing 20-150 mM imidazole. The 6His-MTANs were eluted in 250 mM imidazole, desalted using a Sephadex G-15 (GE Healthcare) gel filtration column, equilibrated with low salt buffer (100 mM HEPES, 30 mM KCL, pH 7.6) and concentrated to 40 mg/mL.
(§2) Inhibitor concentrations were obtained from the absorbance at 274 nm with extinction coefficient of 8.5 mM^−1 cm^−1 for 9-deazaadenine moiety.
(§3) MTAN activities were assayed as reported previously (Singh et al (2006) Biochemistry 45, 12929-12941; Singh, et al (2005) J. Biol. Chem. 280, 18265-18273). Briefly, all experiments were carried out at 25° C., in 1 mL total reaction volume containing 100 mM HEPES buffer, pH 7.5 and 50 mM KCl with 5′-deoxymethylthioadenosine (MTA) as substrate. Kinetic constants (kcat and Km) were determined by monitoring MTA hydrolysis at 274 nm where ΔεMTA=1.6 mM^−1 cm^−1. For measuring dissociation constant (Kd) of inhibitors, a xanthine oxidase-coupled assay was carried out. In this assay, saturating levels (1-2 mM) of MTA and various concentrations of inhibitor were mixed with xanthine oxidase (0.5 unit/mL), which is used to convert the MTAN product adenine to 2,8-dihydroxyadenine (ε2,8-dihydroxadenine=15.2 mM^−1 cm^−1 at 293 nm). Reactions were initiated by the addition of 8-10 nM MTAN, and the absorbance at 293 was monitored. Control experiments were carried out in the absence of either inhibitor or MTAN.
(§4) [formula] where vs′ and vs are steady state rates in the presence, and absence of inhibitor, respectively; Km is substrate Michaelis constant which was obtained as described above; [S] and [I] are the concentrations of the substrate MTA and inhibitor, respectively. […] All data fitting was carried out with KaleidaGraph™ ver. 3.5 (Synergy Software).

The target of a further assay is N. meningitides MTAN (Neisseria meningitidis, UniProt Q9K054). Description: Inhibition constants with N. meningitides MTAN (xanthine oxidase-coupled assay). The class given is biochemical, N. meningitides MC58. The note with it: 25° C., pH 7.5, MTA as substrate. How it is done: as §1, §2, §3, §4
Chain of N. meningitides MTAN (Q9K054 entry or part of it): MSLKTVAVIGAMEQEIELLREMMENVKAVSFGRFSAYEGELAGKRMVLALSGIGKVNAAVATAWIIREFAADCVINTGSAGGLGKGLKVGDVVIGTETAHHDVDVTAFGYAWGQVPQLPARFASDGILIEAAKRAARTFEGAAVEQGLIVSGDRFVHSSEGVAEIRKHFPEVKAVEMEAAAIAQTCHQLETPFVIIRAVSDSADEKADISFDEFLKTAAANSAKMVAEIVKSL
For a further assay, the target named is T2, human MTAP (Homo sapiens, UniProt Q13126).
T2 construct: made in house
T2 sequence (Q13126 1-283): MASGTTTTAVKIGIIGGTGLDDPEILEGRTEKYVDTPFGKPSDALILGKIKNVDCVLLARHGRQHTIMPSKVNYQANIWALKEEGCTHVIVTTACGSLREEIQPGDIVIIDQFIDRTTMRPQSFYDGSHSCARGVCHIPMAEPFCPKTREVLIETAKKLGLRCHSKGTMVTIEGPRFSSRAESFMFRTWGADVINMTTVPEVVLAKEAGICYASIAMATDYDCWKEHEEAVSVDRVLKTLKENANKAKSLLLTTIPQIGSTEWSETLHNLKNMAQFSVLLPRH
Briefly: Inhibition constants with MTAP (continuous spectrophotometric assay). The class given is biochemical. The protocol: After removal of cell debris by centrifugation, the soluble cell lysates were loaded onto nickel-charged chelating sepharose (GE Healthcare) and washed with lysis buffer containing 20-150 mM imidazole. The 6His-MTANs were eluted in 250 mM imidazole, desalted using a Sephadex G-15 (GE Healthcare) gel filtration column, equilibrated with low salt buffer (100 mM HEPES, 30 mM KCL, pH 7.6) and concentrated to 40 mg/mL.
Continuous spectrophotometric assays were used to characterize the inhibitors of the invention and […] inhibition of MTAP.

By Kd is commonly meant the concentration at which binding is half-saturated.

T1 sequence (P0AF12 whole entry): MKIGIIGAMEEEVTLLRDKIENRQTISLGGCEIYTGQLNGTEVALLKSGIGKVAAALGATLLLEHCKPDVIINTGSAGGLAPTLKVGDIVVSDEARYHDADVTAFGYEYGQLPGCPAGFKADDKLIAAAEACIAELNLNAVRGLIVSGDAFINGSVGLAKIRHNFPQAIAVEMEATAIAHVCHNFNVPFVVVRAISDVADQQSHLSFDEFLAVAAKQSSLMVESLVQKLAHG

For the compound `CSC[C@@H](CNCc1c[nH]c2c(N)ncnc12)[C@@H](O)CO` (racemic) [Example 3, (2RS,3SR)-4-[(4-amino-5H-pyrrolo[3,2-d]pyrimidin-7-yl)methylamino]-3-(methylthiomethyl)butane-1,2-diol], the equilibrium dissociation constant (Kd) came to 9 ± 2 nM on E. coli MTAN and 5 ± 1 nM at N. meningitides MTAN.
`CSC[C@H](O)[C@@H](CO)CNCc1c[nH]c2c(N)ncnc12` (racemic) [Example 9, (2RS,3RS)-2-{[(4-amino-5H-pyrrolo[3,2-d]pyrimidin-7-yl)methylamino]methyl}-4-(methylthio)butane-1,3-diol]: the equilibrium dissociation constant (Kd) at E. coli MTAN worked out at 25 ± 2 nM; at N. meningitides MTAN, 12.8 ± 0.9 nM; at human MTAP it was 278 ± 27 nM.
In the case of `CSC[C@H](O)[C@@H](CO)CN(C)Cc1c[nH]c2c(N)ncnc12` (racemic) [Example 10, (2RS,3RS)-2-((((4-amino-5H-pyrrolo[3,2-d]pyrimidin-7-yl)methyl)(methyl)amino)methyl)-4-(methylthio)butane-1,3-diol], the values for the Kd at E. coli MTAN and on N. meningitides MTAN were 65 ± 6 nM and 132 ± 9 nM, respectively.
Regarding `CSCC(CO)(CO)NCc1c[nH]c2c(N)ncnc12` [Example 1, 2-((4-amino-5H-pyrrolo[3,2-d]pyrimidin-7-yl)methylamino)-2-(methylthiomethyl)propane-1,3-diol], the figures for the Kd at E. coli MTAN, at N. meningitides MTAN and on human MTAP were 5.8 ± 0.8 nM, 4 ± 2 nM and 34 ± 24 nM, respectively.
On the same counts, the results for `CSC[C@@H](O)CNCc1c[nH]c2c(N)ncnc12` [Example 2, (S)-1-((4-amino-5H-pyrrolo[3,2-d]pyrimidin-7-yl)methylamino)-3-(methylthio)propan-2-ol] are 4 ± 0.5 nM, 3.6 ± 0.4 nM and 60 ± 8 nM.
As for `CSC[C@@H](CN(C)Cc1c[nH]c2c(N)ncnc12)[C@@H](O)CO` [Example 4, (2R,3S)-4-(((4-amino-5H-pyrrolo[3,2-d]pyrimidin-7-yl)methyl)(methyl)amino)-3-(methylthiomethyl)butane-1,2-diol], the Kd on E. coli MTAN was 2300 ± 600 nM.
In turn, `CSC[C@H](O)[C@H](CO)NCc1c[nH]c2c(N)ncnc12` [Example 7, (2S,3R)-2-((4-amino-5H-pyrrolo[3,2-d]pyrimidin-7-yl)methylamino)-4-(methylthio)butane-1,3-diol] registered a dissociation constant (Kd) at human MTAP of 87 ± 11 nM.
For `CSC[C@@H](O)[C@@H](CO)N(C)Cc1c[nH]c2c(N)ncnc12` [Example 8, (2R,3S)-2-(((4-amino-5H-pyrrolo[3,2-d]pyrimidin-7-yl)methyl)(methyl)amino)-4-(methylthio)butane-1,3-diol], the dissociation constant (Kd) at E. coli MTAN amounted to 62 ± 5 nM; at N. meningitides MTAN, 19.3 ± 0.3 nM; at human MTAP, 88 ± 21 nM.
With `CSC[C@H](O)[C@@H](O)CN(C)Cc1c[nH]c2c(N)ncnc12` [Example 11, (2S,3R)-1-(((4-amino-5H-pyrrolo[3,2-d]pyrimidin-7-yl)methyl)(methyl)amino)-4-(methylthio)butane-2,3-diol], the Kd on E. coli MTAN amounted to 202 ± 35 nM.
As for `CSC[C@H](CO)N[C@H](CO)c1c[nH]c2c(N)ncnc12` [Example 12, (S)-2-((S)-1-(4-amino-5H-pyrrolo[3,2-d]pyrimidin-7-yl)-2-hydroxyethylamino)-3-(methylthio)propan-1-ol], the Kd on E. coli MTAN came to 154 ± 15 nM; at N. meningitides MTAN, 47 ± 4 nM; on human MTAP, 130 ± 20 nM.
